What follows are compounds tested against T1, Murine p38 (Mus musculus, UniProt P47811) (assay: p38 kinase assay). Conditions: illustrative Examples; table does not say which of 'the above assays'.
T1 construct: made in house; host or cells: Drosophila S2 cells (p38); E. coli (GST-ATF2)
Format: biochemical
Method: Murine p38 containing the FLAG epitope tag was expressed in Drosophila S2 cells under transcriptional control of a copper-inducible metallothionein promoter. Expression of recombinant p38 was induced by treating transfected cells with 1 mM CuSO4 for 4 hours. To generate active recombinant murine p38, CuSO4-treated S2 cells were stimulated 10 minutes prior to harvest with 400 mM NaCl, 2 mM Na3VO4, and 100 μg/L okadaic acid. Cell pellets were washed with phosphate-buffered saline, 2 mM Na3VO4, and lysed in 20 mM Tris HCl, pH 7.5, 120 mM NaCl, 1% Triton X-100, 2 mM EDTA, 20 mM NaF, 4 mM Na3VO4, 2 mM Prefabloc SC (Boehringer Mannheim). Cell lysates were centrifuged for 10 min at 13,000×g, and activated, recombinant murine p38 was immunoaffinity purified from the lysate by column chromatography through anti-FLAG M2 resin (Kodak) that had been equilibrated with lysis buffer. After loading the extract the resin was washed with 10 column volumes of lysis buffer, 10 column volumes buffer A (10 mM Tris HCl, pH 7.5, 500 mM NaCl, 20% glycerol) and 10 column volumes of buffer B (10 mM Tris HCl pH 7.5, 150 mM NaCl, 20% glycerol). The fusion protein was eluted in buffer B containing 100 μg/mL FLAG peptide (Kodak).
The N-terminal 115 amino acids of ATF-2 was expressed in E. coli as a fusion protein with glutathione-S-transferase. The fusion protein was purified over glutathione agarose according to standard procedures (Pharmacia).
p38 kinase assays were performed in a reaction volume of 100 μL in a 96-well plate, at 30° for […] under the following conditions: 25 mM Hepes, pH 7.4, 10 mMmgCl2, 20 mM β-glycerolphosphate, 2 mM DTT, 5 μM ATP, 10 μCi [γ-33P]-ATP and ˜2 μM GST-ATF2. Serial dilutions of compounds were added to each reaction in 2 μL DMSO. 2 μL of DMSO was added to the last row of each reaction plate as the no inhibitor control for each inhibitor titration. The reaction was terminated with an equal volume of a stop solution containing 100 mM EDTA and 15 mM sodium pyrophosphate. PVDF filter plates (MAIPNOB50, Millipore) were pre-wet with methanol and washed with the stop solution. 50 μL aliquots from a single reaction were applied to the filter under vacuum, and the filter was washed twice with 75 mM phosphoric acid. The filter plates were counted in a scintillation counter (Top Count, Packard) and the percent inhibition at each compound concentration is determined.

T1 sequence (P47811 whole entry): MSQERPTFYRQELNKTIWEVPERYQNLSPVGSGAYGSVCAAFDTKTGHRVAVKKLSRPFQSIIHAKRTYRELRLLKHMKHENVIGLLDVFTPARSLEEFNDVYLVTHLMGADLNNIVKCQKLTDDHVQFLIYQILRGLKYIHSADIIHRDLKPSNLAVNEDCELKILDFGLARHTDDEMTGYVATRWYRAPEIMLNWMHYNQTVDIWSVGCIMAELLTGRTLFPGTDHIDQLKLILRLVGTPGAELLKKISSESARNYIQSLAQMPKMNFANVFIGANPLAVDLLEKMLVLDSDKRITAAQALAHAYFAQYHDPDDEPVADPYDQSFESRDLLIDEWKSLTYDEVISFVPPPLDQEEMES

| SMILES | IC50 |
| --- | --- |
| O=c1ccn2cc(Sc3ccc(F)cc3F)ccc2c1-c1c(F)cccc1F [Example 52, 1-(2,6-difluorophenyl)-7-[(2,4-difluorophenyl)thio]-2H-quinolizin-2-one] | 320 nM |
| O=c1ccn2cc(Cc3ccc(F)cc3F)ccc2c1-c1c(F)cccc1F [Example 53, 7-(2,4-difluorobenzyl)-1-(2,6-difluorophenyl)-2H-quinolizin-2-one] | 93 nM |
| O=c1ccn2nc(NCc3ccc(F)cc3F)ccc2c1-c1c(F)cccc1F [Example 49] | 710 nM |

Compounds with a lower IC50, results first:

| IC50 | SMILES |
| --- | --- |
| 59 nM | CCc1ccc(C(=O)N2CCCC2)cc1-c1c(=O)ccn2nc(Oc3ccc(F)cc3F)ccc12 [Example 14, 2-(2,4-difluorophenoxy)-5-[2-ethyl-5-(pyrrolidin-1-ylcarbonyl)phenyl]-6H-pyrido[1,2-b]pyridazin-6-one] |
| 22 nM | COc1ccc(C(=O)N2CCCC2)cc1-c1c(=O)ccn2nc(Oc3ccc(F)cc3F)ccc12 [Example 4, 2-(2,4-difluorophenoxy)-5-[2-methoxy-5-(pyrrolidin-1-ylcarbonyl)phenyl]-6H-pyrido[1,2-b]pyridazin-6-one] |

From patent US7482345B2, “P38 kinase inhibiting agents” (priority 2005, dated 2009)
